Data as given in patent publication US11040937B2, “Amide derivative” (TOHOKU UNIVERSITY, priority 2014, dated 2021).

Test system: OPN production in A549 cells
Assay: OPN production in culture supernatant by ELISA, per mg cell protein
Type: cell-based, human
Conditions: for amount of the OPN production vs control group: 2 days, significance level less than 1%
Description: Brefelamide (Compound 1) was added to a culture liquid containing cells of human liver cancer-derived cell line HepG2, human non-small cell lung cancer-derived cell line A549, human renal cell carcinoma-derived cell line OUR-10, or human pancreatic cancer-derived cell line QGP-1, and the amount of OPN in the culture supernatant after 2 days was measured using Human Osteopontin Immunoassay kit (R&D systems). The confirmation test was performed by comparison of the OPN amount of Compound 1-treated group with that of DMSO-treated group (control group). In addition, Compounds 6, 19, 26, and 38 which are brefelamide derivatives were added to a culture liquid containing cells of human non-small cell lung cancer-derived cell line A549, and a similar confirmation test to the above-mentioned test was performed.
Compounds 1, 6, 19, 26, and 38 have also a cell growth inhibitory effect. Thus, in order to properly evaluate the inhibitory effect of the compounds on the OPN production, the 1×CCLR solution used in luciferase assay was added to cells remaining in each well after removal of culture supernatant to prepare a cell lysate, and the amount of protein in the cell lysate was measured using BCA Protein Assay Kit (Thermo Scientific). The influence of Compound 1 on the amount of the OPN production was evaluated by comparison of the amount of OPN per milligram of protein.
HepG2 cells or A549 cells were suspended in DMEM medium containing 10% FCS and 1% P/S at 4×10^4 cells/mL to obtain a cell suspension, and the cell suspension was dispensed into each well of a 24-well plate in an amount of 500 μL. In order to perform the test in triplicate, 3 wells were prepared for each control group, and 3 wells were prepared for each test compound-treated group at each concentration. The 24-well Plate was incubated in a CO2 incubator (at 37° C., and 3% CO2) for 24±4 hours.
Compound 1, 6, 19, 26, and 38 which are test compounds were dissolved in DMSO to prepare a 50 mmol/L solution of each compound, and the solutions were stored at −80° C. The solution of Compound 1 was diluted with DMSO to prepare 2.5 mmol/L and 5 mmol/L solutions (FIG. 1), 3.125 mmol/L and 6.25 mmol/L solutions (FIG. 2), 6.25 mmol/L and 12.5 mmol/L solutions (FIG. 3), or 5 mmol/L and 10 mmol/L solutions (FIG. 4). The two solutions of Compound 1 at different concentrations were added in an amount of 2 μL per well to wells in which HepG2, A549, OUR-10, or QGP-1 cells were culture, respectively. Only DMSO was added in an amount of 2 μL to each control well.
Similarly, the 50 mmol/L solution of Compound 6 was stared at −80° C., and the solution was diluted with DMSO to prepare 2.5 mmol/L and 5 mmol/L solutions (FIG. 5). The two solutions of Compound 6 at different concentrations were added in an amount of 2 μL per well to wells in which A549 cells were cultured. Only DMSO was added in an amount of 2 μL to the control well.
Also, the 50 mmol/L solutions of Compounds 19, 26, and 38 were stored at −80° C., and each solution was diluted with DMSO to prepare 3.125 mmol/L and 6.25 mmol/L solutions (FIGS. 8 to 10). The two solutions of Compound 19, 26, or 38 at different concentrations were added in an amount of 2 μL per well to wells in which A549 cells were cultured, respectively. Only DMSO was added in an amount of 2 μL to each control well.
The 24-well plate was shaken to mix the solution in each well, and was then incubated in a CO2 incubator (at 37° C. and 5% CO2) for 48±4 hours. Then, the total amount of the resulting culture supernatant was transferred into a 1.5 mL tube, and D-PBS(−) (500 μL) was added to each well containing cells.
The 24-well plate was gently shaken to remove D-PBS(−), and then 5×CCLR used in luciferase assay was diluted to 5 times with water to prepare 1×CCLR. The prepared 1×CCLR was dispensed into each well in an amount of […]. The 24-well plate was then rocked on a rocking shaker for 15 minutes. […]

[1] = concentration increased from 12.5 μmol/L to 25 μmol/L

Structure (SMILES) | amount of the OPN production vs control group (12.5 μmol/L) | amount of the OPN production vs control group (25 μmol/L) | OPN production, dependence on concentration [1] | amount of the OPN production vs control group (10 μmol/L) | amount of the OPN production vs control group (20 μmol/L) | OPN production, dependence on concentration (concentration increased from 10 μmol/L to 20 μmol/L)
O=C(CCNC(=O)c1ccc(O)cc1)Nc1cccc(Oc2ccc(Cl)c(Cl)c2)c1 [Compound 38, N-(3-(3-(3,4-dichlorophenoxy)phenylamino)-3-oxopropyl)-4-hydroxybenzamide] | significantly inhibited | significantly inhibited | inhibited depending on the concentration | – | – | –
COc1ccc(Oc2cccc(C(=O)CCNC(=O)c3ccc(O)cc3)c2N)cc1 [Compound 6, N-(3-(2-Amino-3-(4-methoxyphenoxy)phenyl)-3-oxopropyl)-4-hydroxybenzamide] | – | – | – | significantly inhibited | significantly inhibited | inhibited depending on the concentration
COc1ccc(Oc2cccc(NC(=O)CCNC(=O)c3ccc(O)cc3)c2)cc1 [Compound 26, N-(3-(3-(4-Methoxyphenoxy)phenylamino)-3-oxopropyl)-4-hydroxybenzamide] | – | – | inhibited depending on the concentration | – | – | –
Nc1ccc(C(=O)NCCC(=O)c2cccc(Oc3ccc(Cl)cc3)c2N)cc1 [Compound 19, N-(3-(2-Amino-3-(4-chlorophenoxy)phenyl)-3-oxopropyl)-4-aminobenzamide] | significantly inhibited | significantly inhibited | inhibited depending on the concentration | – | – | –
